In ChEMBL document CHEMBL1201861, “Genomics of Drug Sensitity in Cancer screening data, Wellcome Trust Sanger Institute” one finds IC50 data, which are given here for three compounds.

As a reminder, the IC50 is the concentration that gives 50% inhibition.

The test system of one assay is NCI-H128. Briefly: SANGER: Inhibition of human NCI-H128 cell growth in a cell viability assay. The class given is functional, cell-based.
The next assay concerns IMR-5. Briefly: cells. The class given is functional, cell-based, Homo sapiens. The conditions noted are these: read-out: IC50.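 Also: growth inhibition of human IMR-5 cells, read out with a cell viability assay.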
The next assay has as its system LC-1F. Nature of the assay: cells. The class given is functional, cell-based, Homo sapiens.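 Also: growth inhibition of human LC-1F cells, read out with a cell viability assay.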
The test system of the next assay is SR. Nature of the assay: cells. The format is functional, cell-based, Homo sapiens.
In a further assay the test system is EW-12. Nature of the assay: SANGER: Inhibition of human EW-12 cell growth in a cell viability assay. The class given is functional, cell-based.
In another assay the test system is NB12. Briefly: cells. The format is functional, cell-based. The conditions noted are these: Homo sapiens.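 Also: growth inhibition of human NB12 cells, read out by a cell viability assay.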
In another assay the test system is MDA-MB-134-VI. Nature of the assay: cells. The format is functional, cell-based, Homo sapiens.
In another assay the test system is SIMA. Briefly: cells. The class given is functional, cell-based, Homo sapiens.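 Also: growth inhibition of SIMA cells, measured with a cell viability readout.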
For a further assay, the system named is NCI-H1882. Briefly: cells. The format is functional, cell-based, Homo sapiens.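 Also: growth inhibition of the cell line, determined with a viability assay.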
A further assay relates to U-698-M. Briefly: cells. The class given is functional, cell-based, Homo sapiens.
A further assay concerns IM-9. Nature of the assay: SANGER: Inhibition of human IM-9 cell growth in a cell viability assay. The format is functional, cell-based.
The next assay concerns CESS. Nature of the assay: SANGER: Inhibition of human CESS cell growth in a cell viability assay. The format is functional, cell-based.
The test system of another assay is EHEB. Briefly: cells. The format is functional, cell-based. The conditions noted are these: Homo sapiens.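 Also: growth inhibition of human EHEB cells, read out with a cell viability assay.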
In a further assay the test system is CMK. Briefly: cells. The format is functional, cell-based, Homo sapiens.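 Also: growth inhibition of CMK cells, read out as cell viability.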
For another assay, the system named is ECC12. Briefly: cells. The class given is functional, cell-based. The conditions noted are these: Homo sapiens.
A further assay deals with Kasumi 1. Nature of the assay: cells. The class given is functional, cell-based, Homo sapiens.
In a further assay the test system is NCI-H2107. Briefly: SANGER: Inhibition of human NCI-H2107 cell growth in a cell viability assay. The class given is functional, cell-based.

Where “and” joins values, the source holds several entries; their conditions need not be identical. Identical values can stand only once. Where a SMILES comes first, the peptide text is derived from it. The star is where a group is joined. Cbz = O=C(OCc1ccccc1)* A value given as a limit tells only on which side of the number the result lay.

Description for CMK: SANGER: Inhibition of human CMK cell growth in a cell viability assay.
Description for ECC12: SANGER: Inhibition of human ECC12 cell growth in a cell viability assay.
Description for EHEB: SANGER: Inhibition of human EHEB cell growth in a cell viability assay.
Description for IMR-5: SANGER: Inhibition of human IMR-5 cell growth in a cell viability assay.
Description for Kasumi 1: SANGER: Inhibition of human KASUMI-1 cell growth in a cell viability assay.
Description for LC-1F: SANGER: Inhibition of human LC-1F cell growth in a cell viability assay.
Description for MDA-MB-134-VI: SANGER: Inhibition of human MDA-MB-134-VI cell growth in a cell viability assay.
Description for NB12: SANGER: Inhibition of human NB12 cell growth in a cell viability assay.
Description for NCI-H1882: SANGER: Inhibition of human NCI-H1882 cell growth in a cell viability assay.
Description for SIMA: SANGER: Inhibition of human SIMA cell growth in a cell viability assay.
Description for SR: SANGER: Inhibition of human SR cell growth in a cell viability assay.
Description for U-698-M: SANGER: Inhibition of human U-698-M cell growth in a cell viability assay.

Take `CC(C)C[C@H](NC(=O)[C@H](Cc1ccccc1)NC(=O)c1cnccn1)B(O)O` [BORTEZOMIB]: the IC50 is more than 0.02 µM in the assay on NCI-H128 (Homo sapiens, NCI-H128); more than 0.02 µM in the assay on IMR-5 (Homo sapiens, IMR-5); 0.00374 µM with LC-1F (Homo sapiens, LC-1F); 0.00125 µM in the assay with SR (Homo sapiens, SR); more than 0.02 µM in the assay with EW-12 (Homo sapiens, EW-12); 0.00156 µM with NB12. For the same compound, the IC50 with MDA-MB-134-VI (Homo sapiens, MDA-MB-134-VI) is more than 0.02 µM; in the assay with SIMA (Homo sapiens, SIMA), more than 0.02 µM; with NCI-H1882 (Homo sapiens, NCI-H1882) it was 0.0012 µM; with U-698-M (Homo sapiens, U-698-M), more than 0.02 µM; in the assay with IM-9 (Homo sapiens, IM-9) it was more than 0.02 µM; in the assay on CESS (Homo sapiens, CESS), 0.000538 µM. The IC50 in the assay on EHEB was 0.00167 µM; in the assay with CMK (Homo sapiens, CMK), 0.00129 µM; in the assay with ECC12, 0.00137 µM; in the assay on Kasumi 1 (Homo sapiens, Kasumi 1), more than 0.02 µM.
On to `Nc1ccccc1NC(=O)c1ccc(CNC(=O)OCc2cccnc2)cc1` [ENTINOSTAT], for which the IC50 in the assay with NCI-H128 (Homo sapiens, NCI-H128) was more than 5 µM; in the assay on IMR-5 (Homo sapiens, IMR-5), more than 5 µM; in the assay on LC-1F (Homo sapiens, LC-1F), 1.12 µM; in the assay with SR (Homo sapiens, SR), 0.343 µM; with EW-12 (Homo sapiens, EW-12), more than 5 µM; in the assay on NB12, 0.318 µM. Besides, the IC50 with MDA-MB-134-VI (Homo sapiens, MDA-MB-134-VI) is 1.29 µM; with SIMA (Homo sapiens, SIMA), more than 5 µM; in the assay with NCI-H1882 (Homo sapiens, NCI-H1882) it was 2.68 µM; in the assay on U-698-M (Homo sapiens, U-698-M), more than 5 µM; in the assay with IM-9 (Homo sapiens, IM-9) it was more than 5 µM; in the assay with CESS (Homo sapiens, CESS) it was 0.812 µM. Further, the IC50 in the assay with EHEB was 0.926 µM; in the assay with CMK (Homo sapiens, CMK), 0.357 µM; in the assay with ECC12, 0.701 µM; with NCI-H2107, 1.36 µM; with Kasumi 1 (Homo sapiens, Kasumi 1), more than 5 µM.
On to `CC(C)C[C@@H](C=O)NC(=O)[C@H](CC(C)C)NC(=O)[C@H](CC(C)C)NC(=O)OCc1ccccc1` [MG-132] (Cbz-Leu-Leu-Leu-aldehyde), for which the IC50 with NCI-H128 (nci-h128) was more than 1 µM; in the assay with IMR-5 (Homo sapiens, IMR-5), more than 1 µM; in the assay on IMR-5 (imr-5), more than 1 µM; in the assay on LC-1F (lc-1f), more than 1 µM; in the assay with SR (sr), more than 1 µM; with EW-12 (ew-12), more than 1 µM. Besides, the concentration for half-maximal inhibition (IC50) in the assay on NB12 was more than 1 µM; in the assay with MDA-MB-134-VI (mda-mb-134-vi), more than 1 µM; in the assay on SIMA (sima), more than 1 µM; with NCI-H1882 (nci-h1882) it was 0.59 µM and > 1 µM; in the assay on U-698-M (u-698-m), more than 1 µM; in the assay with IM-9 (im-9) it was more than 1 µM. Besides, the IC50 in the assay on CESS (cess) is 0.171 µM and > 1 µM; in the assay with EHEB, more than 1 µM; in the assay with CMK (cmk), 0.311 µM and > 1 µM; with ECC12, more than 1 µM; in the assay with NCI-H2107 it was more than 1 µM; in the assay on Kasumi 1 (Homo sapiens, Kasumi 1) it was more than 1 µM. In addition, the IC50 in the assay on Kasumi 1 (kasumi 1) was more than 1 µM.
